From US12419869B2, “Methods of treating multiple sclerosis” (Vanda Pharmaceuticals Inc., priority 2021, dated 2025)
“And” between values parts separate entries of the source, which are not always exact repeats. Equal entries are not always repeated.

Legend:
Type in all cases: in vivo, human
[1] = system: adult subjects with relapsing MS; test: Brain MRI lesions (CUAL, Gd+ T1, new/enlarging T2) from baseline to Week 108; details: for CUAL mean estimate (Lesions per year): baseline to Week 108, negative binomial regression, Full Analysis Set
Method: CUAL are new Gd+T1 lesions plus new or enlarging T2 lesions (without double-counting of lesions).
MRI scans were performed at Visits 2 (Baseline), 10 (Week 60), and 14 (EOT) and at any unscheduled visit (U1, U2, etc.). If applicable, MRI scans also were performed at the corresponding visits in the PTOP (Visits 10A and 14A). Testing at all visits were performed up to 7 days prior to or after the visit date.
MRI variables included the number and volume of new and total Gd+ lesions on T1-weighted MRI scans, number of new and enlarging lesions and lesion volume on T2-weighted MRI, and global measures of loss of brain tissue.
T1-weighted imaging before and after i.v. administration of 0.1 mmol/kg body weight (=0.2 mL/kg) of Gd as well as PD-T2-weighted imaging was performed. Gd may cause nausea and vomiting and in very rare cases allergic reactions that could require immediate anti-anaphylactic therapy (such as steroids, epinephrine/adrenaline, etc.).
Patients (18-55 years) with RMS (expanded disability status scale scores: 0-5.5) were randomized (1:1) to receive ponesimod (PON) 20 mg or teriflunomide (TER) 14 mg for 108 weeks. MRI assessments were: volume of T2 lesions; mean number of new gadolinium-enhancing (Gd+) T1 lesions and new/enlarging T2 lesions; and absence of active MRI lesions at week 108. NEDA-3 status (absence of confirmed relapse, Gd+T1 lesions and new/enlarging T2 lesions on annual MRIs, and 12-week confirmed disability accumulation) was evaluated from baseline to week 108.

[2] = system: adult subjects with relapsing MS; test: 12-lead ECG heart rate and AV conduction at treatment initiation (Day 1, ponesimod 2 mg)
Method: As per up-titration regimen, the dose of ponesimod on Day 1 is 2 mg.
The incidence of treatment-emergent heart rate and rhythm (including hypotension) AESIs on Day 1 was higher in the ponesimod 20 mg arm (2.1%) than in the teriflunomide 14 mg arm (0.4%). However, the overall incidence of first dose AESI on Day 1 was low (2.1%) in ponesimod. None of these events were serious nor led to permanent discontinuation of study treatment. Discharge criteria at 4 hours post-dose were met for ca. 99% of subjects. […] ECG HR effect: nadir at 2 hours post-dose (siponimod—3-4 hours, fingolimod—around by 6 hours). Low incidence of low HR outliers (post-dose HR 40 bpm), all 3 of them with a pre-treatment HR of <55 bpm, which is a known risk factor for post-dose bradycardia with SIP receptor modulators.
The mean heart rate reduction compared to pre-dose reached a maximum for ponesimod 20 mg at 2-hours post dose, −8.7 bpm compared to −1.7 bpm for teriflunomide 14 mg (FIG. 6).
Initiation of PONVORY may result in a transient decrease in HR. In Study 1, bradycardia at treatment initiation and sinus bradycardia on ECG (defined as HR less than 50 bpm) occurred in 5.8% of PONVORY-treated patients compared to 1.6% of patients receiving teriflunomide 14 mg. After the first titration dose of PONVORY, the decrease in heart rate typically begins within an hour and reaches its nadir within 2-4 hours. The heart rate typically recovers to baseline levels 4-5 hours after administration. The mean decrease in heart rate on Day 1 of dosing was 6 bpm. With up-titration after Day 1, the post-dose decrease in heart rate is less pronounced. […] On Day 1, 3 patients treated with PONVORY had asymptomatic post-dose HR below or equal to 40 bpm; all 3 patients had baseline HRs below 55 bpm.

[3] = system: adult subjects with relapsing MS; test: Confirmed relapses / annualized relapse rate up to EOS, phase III study ponesimod 20 mg vs teriflunomide 14 mg; details: for Mean estimate (ARR), confirmed relapses up to EOS: negative binomial regression, teriflunomide 14 mg, ponesimod 20 mg; for Percentage of patients without relapse: study period of approximately 108 weeks
Method: Primary efficacy variable/primary timepoint: The primary endpoint was annualized relapse rate (ARR) up to the end of study (EOS) defined as the number of confirmed relapses per subject-year. All available data up to EOS, regardless of treatment discontinuation was included (ITT approach).
The primary statistical analysis of the ARR endpoint was performed on the FAS using a negative binomial model for confirmed relapses, with the stratification variables prior use of disease-modifying therapies (DMTs) and EDSS category as well as the number of relapses in the year prior to study entry, included in the model and time in the study as an offset variable. Sensitivity analyses was performed on the PPS and also based on different subgroups derived from baseline variables.
A relapse is defined as new, worsening or recurrent neurological symptoms that occur at least 30 days after the onset of a preceding relapse, and that last at least 24 hours, in the absence of fever or infection.
A relapse was confirmed by the treating neurologist only when the subjects' symptoms were accompanied by an increase in EDSS/FS (functional system) scores, which were consistent with the subject's symptoms, from a previous clinically stable EDSS/FS assessment (i.e., performed at least 30 days after the onset of any previous relapse), obtained by the efficacy assessor and consistent with the following: • An increase of at least half a step (0.5 points; unless EDSS=0, then an increase of at least 1.0 points is required) or • An increase of at least 1.0 point in at least two FS scores, or • An increase of at least 2.0 points in at least one FS score (excluding bladder/bowel and cerebral).
The primary statistical analysis was performed up to EOS on the FAS using a negative binomial regression model for confirmed relapses, with treatment as a factor and the binary stratification variables (EDSS≤3.5 versus EDSS>3.5; DMTs within last 2 years prior to randomization [Yes/No]) and the number of relapses in the year prior to study entry (categories≤1 (or missing) and […]) included in the model. The model also included an offset variable defined as the log of time on study (in years) from randomization up to EOS.

[4] = system: adult subjects with relapsing MS; test: Blood pressure, Study 1; details: for Average increase in diastolic blood pressure / Average increase in systolic blood pressure: Study 1
Method: An increase in blood pressure with PONVORY was first detected after approximately 1 month of treatment initiation and persisted with continued treatment. Hypertensive events were reported as an adverse reaction in 10.1% of PONVORY-treated patients and in 9.0% of patients receiving teriflunomide 14 mg. One patient treated with PONVORY experienced a hypertensive crisis but had evidence of longstanding hypertensive heart disease. Blood pressure should be monitored during treatment with PONVORY and managed appropriately.

C/C(O)=C(\C#N)C(=O)Nc1ccc(C(F)(F)F)cc1 [Teriflunomide, reference compound]
CUAL mean estimate (Lesions per year) [1]: 3.164 lesions per year | Mean number of new Gd+ T1 lesions per scan / per MRI ([1]; baseline to week 108): 0.43 | Mean heart rate change compared to pre-dose at 2 hours post dose (maximum) ([2]; Day 1): −1.7 bpm | Subjects with asymptomatic post-dose HR ≤40 bpm ([2]; Day 1): none | Bradycardia at treatment initiation and sinus bradycardia on ECG (HR less than 50 bpm) ([2]; Study 1): 1.6% | First-degree AV block (prolonged PR interval on ECG) ([2]; Study 1): 1.2% | Mean estimate (ARR), confirmed relapses up to EOS ([3]; Full Analysis Set): 0.290 | Percentage of patients without relapse [3]: 60.6% | Average increase in diastolic blood pressure [4]: 3.1 mm Hg | Average increase in systolic blood pressure [4]: 2.8 mm Hg

CCC/N=C1\S/C(=C\c2ccc(OC[C@H](O)CO)c(Cl)c2)C(=O)N1c1ccccc1C [Ponesimod, (R)-5-[3-chloro-4-(2,3-dihydroxy-propoxy)-benz[Z]ylidene]-2-([Z]-propylimino)-3-o-tolyl-thiazolidin-4-one]
CUAL mean estimate (Lesions per year) [1]: 1.405 lesions per year | CUAL mean estimate (Lesions per year) ([1]; listed as ponesimod): 1.405 lesions per year | CUAL treatment effect (Rate Ratio) ponesimod vs teriflunomide ([1]; baseline to week 108): 0.444 and 0.44 | LS mean difference (PON-TER) in change from baseline in total volume of T2 lesions ([1]; baseline to week 108): −399.2 mm^3 | Mean number of new Gd+ T1 lesions per scan / per MRI ([1]; baseline to week 108): 0.18 | Mean number of new/enlarging T2 lesions per year ([1]; baseline to week 108): 1.40 | Rate ratio, new Gd+ T1 lesions per scan, PON vs TER ([1]; baseline to week 108): 0.42 | Rate ratio, new/enlarging T2 lesions per year, PON vs TER ([1]; baseline to week 108): 0.44 | Raw mean lesions/year (CUAL) ([1]; baseline to week 108): 1.559 lesions/year | Reduction of number of CUALs compared to teriflunomide 14 mg ([1]; baseline to week 108): 56% | Total number of lesions (CUAL) ([1]; baseline to week 108): 1671 | Relative reduction, T1 Gd-enhancing lesions per MRI ([1]; vs teriflunomide 14 mg): 58.5% (p < 0001) | Relative reduction, new or enlarging T2 hyperintense lesions per year ([1]; vs teriflunomide 14 mg): 55.7% (p < 0001) | Odds ratio PON vs TER for absence of new Gd+ T1 lesions ([1]; week 108): 2.18 | Odds ratio PON vs TER for absence of new/enlarging T2 lesions ([1]; week 108): 1.71 | Mean heart rate change compared to pre-dose at 2 hours post dose (maximum) ([2]; Day 1): −8.7 bpm | Subjects meeting discharge criteria at 4 hours post-dose ([2]; Day 1): ca. 99% | Subjects with asymptomatic post-dose HR ≤40 bpm ([2]; Day 1): 3 | Time for heart rate to recover to baseline / pre-dose values ([2]; Day 1): 4 to 5 h | ECG HR effect: time of nadir post-dose ([2]; Day 1, 2 mg): 2 h | Bradycardia at treatment initiation and sinus bradycardia on ECG (HR less than 50 bpm) ([2]; Study 1): 5.8% | First-degree AV block (prolonged PR interval on ECG) ([2]; Study 1): 3.4% | Mean decrease in heart rate on Day 1 of dosing ([2]; Study 1): 6 bpm | Second- and third-degree AV blocks ([2]; Study 1): not reported | Time to heart rate nadir / maximal effect after first dose ([2]; post-dose): 2 to 4 h | Raw ARR ([3]; Full Analysis Set, up to EOS): 0.216 | Total number of relapses ([3]; Full Analysis Set, up to EOS): 242 | Treatment effect (rate ratio) on ARR, ponesimod vs teriflunomide ([3]; Full Analysis Set, up to EOS): 0.695 | Mean estimate (ARR), confirmed relapses up to EOS ([3]; Full Analysis Set): 0.202 | Percentage of patients without relapse [3]: 70.7% | Relative reduction of ARR compared to teriflunomide 14 mg ([3]; up to EOS): 30.5% | Average increase in diastolic blood pressure [4]: 2.8 mm Hg | Average increase in systolic blood pressure [4]: 2.9 mm Hg | Time after treatment initiation at which blood pressure increase was first detected ([4]; in vivo): approximately 1 month
